This passage reports MIC results from DBAASP.

Test systems include Shigella sonnei DSM 5570; Escherichia coli K-12; Escherichia coli BL21AI.
What all share (experiment): ≥ marks a high value that may be exact or a test limit, other limits are often not marked, values filed in µg/mL are converted to µM
Assay [1] deals with Escherichia coli DH5alpha.
Assay [2] concerns Pseudomonas aeruginosa NBRC 13275.
Assay [3] relates to Staphylococcus aureus NBRC 13276.
Assay [4] concerns Staphylococcus epidermidis NBRC 12298.
The subject of assay [5] is Acinetobacter baumannii AL1851-ΔLpxA.
Assay [6] relates to Acinetobacter baumannii ATCC 19606.
The subject of assay [7] is Acinetobacter baumannii Al1852-ΔLpxD.
The test system of assay [8] is Citrobacter freundii DSM 30029.
Assay [9] concerns Escherichia coli DSM 1103.
Assay [10] deals with Klebsiella pneumoniae DSM 789.
Assay [11] relates to Pseudomonas aeruginosa DSM 1117.
Assay [12] has as its system Salmonella enterica DSM 17058.
For assay [13], the system named is Staphylococcus aureus DSM 11729.
For assay [14], the system named is Staphylococcus epidermidis DSM 28319.
The test system of assay [15] is Pseudomonas aeruginosa PA214.
The subject of assay [16] is Pseudomonas aeruginosa PA330.
Assay [17] has as its system Pseudomonas aeruginosa PA380.
Assay [18] relates to Pseudomonas aeruginosa PAO1.
The subject of assay [19] is Micrococcus luteus DSM 1790.

Converted amounts (≈) assume the structure as drawn. Bounds are passed on as bounds.

As for `CC[C@H](C)[C@H](NC(=O)CN)C(=O)NCC(=O)N[C@@H](CCCCN)C(=O)N[C@@H](Cc1ccccc1)C(=O)N[C@@H](CC(C)C)C(=O)N[C@@H](Cc1cnc[nH]1)C(=O)N[C@@H](CO)C(=O)N[C@@H](C)C(=O)N[C@@H](CCCCN)C(=O)N[C@@H](CCCCN)C(=O)N[C@@H](Cc1ccccc1)C(=O)NCC(=O)N[C@@H](CCCCN)C(=O)N[C@@H](C)C(=O)N[C@@H](Cc1ccccc1)C(=O)N[C@H](C(N)=O)C(C)C` [GIGKFLHSAKKFGKAFV], the MIC (as a rule, the least concentration at which growth counts as inhibited) was 3.12 µM (≈ 5.73 µg/mL) in assay [1], 3.12 µM (≈ 5.73 µg/mL) in assay [2], not below 50 µM in assay [3] and 12.5 µM (≈ 22.9 µg/mL) in assay [4].
Turning to `CC[C@H](C)[C@H](NC(=O)[C@H](CC(=O)O)NC(=O)[C@H](Cc1c[nH]c2ccccc12)NC(=O)[C@H](CCCCN)NC(=O)[C@@H]1CCCN1C(=O)[C@H](CC(C)C)NC(=O)[C@H](CCSC)NC(=O)[C@H](Cc1ccc(O)cc1)NC(=O)[C@H](CC(C)C)NC(=O)[C@H](CC(N)=O)NC(=O)[C@@H](NC(=O)CNC(=O)[C@H](CCCCN)NC(=O)[C@H](Cc1ccccc1)NC(=O)[C@H](Cc1ccccc1)NC(=O)[C@H](CCCCN)NC(=O)[C@H](Cc1ccccc1)NC(=O)[C@H](Cc1ccccc1)NC(=O)[C@H](CCCCN)NC(=O)[C@H](Cc1ccccc1)NC(=O)[C@H](Cc1ccccc1)NC(=O)[C@@H](N)CCCCN)[C@@H](C)O)C(=O)N1CCC[C@H]1C(N)=O` [KFFKFFKFFKGTNLYMLPKWDIP], the minimal inhibitory concentration (MIC) was determined as 0.25 µM (≈ 0.736 µg/mL) in assay [5]; 0.25 µM (≈ 0.736 µg/mL) in assay [6]; 0.25 µM (≈ 0.736 µg/mL) in [7]; 0.5 µM (≈ 1.47 µg/mL) in assay [8]; 0.5 µM (≈ 1.47 µg/mL) in [9]; 0.25 µM (≈ 0.736 µg/mL) in assay [10]. The minimum inhibitory concentration (MIC) in assay [11] is 1 µM (≈ 2.94 µg/mL); in assay [12], 2 µM (≈ 5.89 µg/mL); in the assay with Shigella sonnei DSM 5570, 0.25 µM (≈ 0.736 µg/mL); in [13] it was not below 32 µM; in [14] it was 1 µM (≈ 2.94 µg/mL).
As for `CC(C)C[C@H](NC(=O)[C@H](C)NC(=O)[C@H](CCCCN)NC(=O)[C@H](CCCCN)NC(=O)[C@H](CCCCN)NC(=O)[C@H](CCCCN)NC(=O)[C@@H](N)CCCCN)C(=O)N[C@@H](Cc1ccccc1)C(=O)N[C@@H](CC(C)C)C(=O)N[C@@H](CCCCN)C(=O)N[C@@H](CC(C)C)C(=O)N[C@@H](Cc1c[nH]c2ccccc12)C(=O)N[C@@H](C)C(=O)N[C@@H](C)C(=O)N[C@@H](Cc1ccccc1)C(=O)N[C@@H](CC(C)C)C(=O)N[C@@H](C)C(N)=O` [KKKKKALFLKLWAAFLA], the minimal inhibitory concentration (MIC) is 3.1 µM (≈ 6.21 µg/mL) in the assay with Escherichia coli K-12; 6.3 µM (≈ 12.6 µg/mL) in assay [15]; 12.5 µM (≈ 25 µg/mL) in [16]; not below 50 µM in [17]; 12.5 µM (≈ 25 µg/mL) in [18].
For the compound `CC[C@H](C)[C@H](NC(=O)[C@H](CCCN=C(N)N)NC(=O)[C@H](CCCN=C(N)N)NC(=O)[C@@H]1CCCN1C(=O)[C@@H]1CCCN1C(=O)[C@H](CCCCN)NC(=O)[C@@H]1CCCN1C(=O)[C@H](CCCN=C(N)N)NC(=O)[C@@H]1CCCN1C(=O)[C@H](CC(C)C)NC(=O)[C@H](Cc1ccc(O)cc1)NC(=O)[C@@H]1CCCN1C(=O)[C@@H]1CCCN1C(=O)[C@H](CCCCN)NC(=O)[C@H](CC(=O)O)NC(=O)[C@@H](N)C(C)C)C(=O)N[C@@H](Cc1ccc(O)cc1)C(=O)N[C@@H](CC(N)=O)C(=O)O` [VDKPPYLPRPKPPRRIYN], the minimum inhibitory concentration (MIC) (against Escherichia coli BL21AI; in [19]) was 7.07 µM (≈ 15.6 µg/mL) in each case.
